Assay results as given in article PMC6365201 (Organic & biomolecular chemistry, 2019).

Target: FrbG (Streptomyces rubellomurinus, UniProt Q0ZQ42, H221A)
Assay: NADPH oxidation at […] nm
Type: biochemical
Conditions: 500 μM substrate; 200 μM NADPH; 5 μM enzyme; 50 mM HEPES

Chain of FrbG (Q0ZQ42 whole entry H221A): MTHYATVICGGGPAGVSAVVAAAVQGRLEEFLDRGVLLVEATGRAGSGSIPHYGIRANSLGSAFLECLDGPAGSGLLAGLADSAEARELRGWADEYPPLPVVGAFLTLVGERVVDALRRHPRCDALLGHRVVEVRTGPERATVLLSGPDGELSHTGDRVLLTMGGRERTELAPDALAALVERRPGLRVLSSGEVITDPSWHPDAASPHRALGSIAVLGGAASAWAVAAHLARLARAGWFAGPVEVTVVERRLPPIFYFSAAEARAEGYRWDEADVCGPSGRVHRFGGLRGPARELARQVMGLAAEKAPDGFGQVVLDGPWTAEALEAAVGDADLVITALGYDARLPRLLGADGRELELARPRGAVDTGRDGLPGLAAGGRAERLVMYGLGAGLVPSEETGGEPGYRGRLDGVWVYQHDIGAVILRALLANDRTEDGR

Structure (SMILES): NCCCP(=O)(O)OP(=O)(O)OC[C@H]1O[C@@H](n2ccc(N)nc2=O)[C@H](O)[C@@H]1O [compound 4, CMP-5’-3APn]
- NADPH oxidation at 340 nm: FrbG-H221A had significantly higher rates for both NADPH oxidation and substrate hydroxylation
